For 108 compounds, outcome results are on record in PubChem BioAssay AID2202554 (NIEHS Division of Translational Toxicology (DTT)).

Records with an inconclusive call do not appear. Active and inactive are the calls of the source. How the calls were made is not given here.

For the series, the system named is S. typhimurium/E. coli reverse mutation, colony counts. As to the kind of experiment: Bacterial reverse mutation test (aka Ames test) summary data. Put shortly:
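S. typhimurium his⁻ strains (TA97–TA1538) and E. coli WP2 uvrA pKM101 trp⁻, dosed over a range with or without rat, hamster or mouse liver S9. Preincubated 20 min at 37° C (or plate incorporation), plated in agar, incubated usually two days. Revertant colonies counted against negative controls.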
Turning to `O=C=Nc1ccc(N=C=O)cc1`, the outcome was “inactive; negative”.
Under `N[C@@H](Cc1c[nH]c2ccccc12)C(=O)O` stands “inactive; negative”; under `Brc1ccc(Oc2ccc(Br)cc2Br)c(Br)c1`, “inactive; negative”; under `C=C(C)C(=O)OCCC`, “inactive; negative”.
On to `C=CCBr`, for which the outcome was “active; positive”.
Under `C=C(C)[C@H]1CC=C(C)C(=O)C1` stands “inactive; negative”.
Under `Cn1cnc2c1c(=O)[nH]c(=O)n2C` stands “inactive; negative”.
Under `C[N+](C)=c1ccc2nc3ccc(N)cc3sc-2c1` stands “active; positive”; under `CNc1ccccc1N`, “active; positive”; under `COc1cc(Cc2cnc(N)nc2N)cc(OC)c1OC`, “inactive; negative”.
As for `CCCCOCCOCCSC#N`, the outcome is “inactive; negative”.
For the compound `CCOc1ccc(NC(C)=O)cc1N`, the outcome was “active; positive”.
Under `C=C1C/C(=C/C)C(=O)O[C@@H]2CCN3CC=C(COC(=O)[C@]1(C)O)[C@H]23` stands “active; positive”.
Under `Oc1ccc(Cl)cc1Cc1ccccc1` stands “inactive; negative”; under `CN1CCC(CN2c3ccccc3Sc3ccccc32)C1` (stereo not drawn), “inactive; negative”; under `C=CCc1ccc2c(c1)OCO2`, “inactive; negative”.
In the case of `COCOC`, the outcome was “inactive; negative”.
As for `Clc1cc(Cl)c(Cl)c(Cl)c1`, the outcome was “inactive; negative”.
As to `C=CCOCC1CO1` (stereo not drawn), the outcome is “active; positive”.
As for `O=C1[O][Bi][O]c2ccccc21`, the outcome is “inactive; negative”.
`C=CC(C)=O`: the outcome is “active; positive”.
`c1ccc2[nH]c(-c3cscn3)nc2c1`: the outcome is “active; positive”.
As for `O=C1CN(N=Cc2ccc([N+](=O)[O-])o2)C(=O)N1`, the outcome was “active; positive”.
Under `CON` stands “inactive; negative”.
Under `Nc1ccc(Oc2ccc(N)cc2)cc1` stands “active; positive”.
As for `O=[N+]([O-])c1ccccc1C(F)(F)F`, the outcome is “inactive; negative”.
As to `ClCCBr`, the outcome is “active; positive”.
As for `COC(=O)[C@H]1[C@H]2C[C@@H]3c4[nH]c5cc(OC)ccc5c4CCN3C[C@H]2C[C@@H](OC(=O)/C=C/c2cc(OC)c(OC)c(OC)c2)[C@@H]1OC`, the outcome was “inactive; negative”.
The result for `O=NN1CCOCC1` reads “active; positive”; that for `Cc1ccc2ccccc2c1`, “inactive; negative”.
The result for `CCCCn1cc[n+](C)c1` reads “inactive; negative”; that for `O=C(O)CCC(=O)OC[C@@H](NC(=O)C(Cl)Cl)[C@H](O)c1ccc([N+](=O)[O-])cc1`, “inactive; negative”.
For the compound `O=C/C=C/O`, the outcome is “inactive; negative”.
The result for `O=Cc1ccccc1` reads “inactive; negative”.
The result for `CCCCCCCCCCCCCCC1CO1` (stereo not drawn) reads “inactive; negative”; that for `CN(C)CCN(Cc1cccs1)c1ccccn1`, “inactive; negative”.
For the compound `COc1cc([N+](=O)[O-])ccc1N`, the outcome is “active; positive”.
The result for `c1ccc(-c2ccccc2)cc1` reads “inactive; negative”; that for `CCN(N=O)C(N)=O`, “active; positive”.
Under `ClCCOCOCCCl` stands “active; positive”.
On to `Nc1c(Cl)cc([N+](=O)[O-])cc1Cl`, for which the outcome was “active; positive”.
Under `Nc1ccn([C@H]2CC[C@@H](CO)O2)c(=O)n1` stands “active; weakly positive”.
The result for `CCCCCCN` reads “inactive; negative”; that for `Nc1nc2ccccc2[nH]1`, “inactive; negative”; that for `O=CC=Cc1ccco1`, “inactive; negative”.
Consider `Nc1ccccc1C(=O)OCC=Cc1ccccc1`, for which the outcome was “inactive; negative”.
The result for `O=C1OC(=O)c2c(Cl)c(Cl)c(Cl)c(Cl)c21` reads “inactive; negative”; that for `CCCSC(=O)Cl`, “active; positive”; that for `ClC=CCl`, “inactive; negative”.
On to `ClC=C(Cl)Cl`, for which the outcome was “inactive; negative”.
Under `CN(C)CCC(c1ccccc1)c1ccccn1` (stereo not drawn) stands “inactive; negative”; under `O=C1C=CC(=O)C=C1`, “inactive; negative”; under `Nc1ccc(N)cc1`, “active; positive”.
The result for `CCCl` reads “active; positive”; that for `COc1ccc2nc(N)sc2c1`, “active; positive”; that for `CCCCCCCCC=O`, “inactive; negative”.
Under `COP(=O)(OC)OC` stands “active; positive”; under `CC(=O)OCC(COC(C)=O)OC(C)=O`, “inactive; negative”; under `Nc1ccn([C@@H]2CS[C@H](CO)O2)c(=O)n1`, “inactive; negative”.
As for `CC12CCC(CC1)C(C)(C)O2`, the outcome is “inactive; negative”.
Under `CCc1ccccc1O` stands “inactive; negative”.
The result for `Cl[C@@H]1C2(Cl)C3C4[C@@H]5O[C@@H]5[C@H]5C3[C@@](Cl)(C2(Cl)Cl)[C@]1(Cl)[C@@H]45` (stereo partly drawn) reads “active; positive”; that for `Cc1cc(-c2ccc(N=Nc3c(S(=O)(=O)O)cc4cc(S(=O)(=O)O)cc(N)c4c3O)c(C)c2)ccc1N=Nc1c(S(=O)(=O)O)cc2cc(S(=O)(=O)O)cc(N)c2c1O`, “active; positive”; that for `COc1cc(-c2ccc(N)c(OC)c2)ccc1N`, “active; positive”.
On to `COC(=O)c1ccccc1C(=O)OC`, for which the outcome was “inactive; negative”.
Under `Oc1c(Cl)cc(Cl)c(Cl)c1Cc1c(O)c(Cl)cc(Cl)c1Cl` stands “inactive; negative”; under `Nc1cc(Cl)c([N+](=O)[O-])cc1O`, “active; positive”.
Under `Clc1cc(Cl)c(Cl)c(Cl)c1Cl` stands “inactive; negative”; under `CC[C@H](CC[C@@H](C)[C@H]1CC[C@H]2[C@@H]3CC=C4C[C@@H](O)CC[C@]4(C)[C@H]3CC[C@]12C)C(C)C`, “inactive; negative”; under `CN(C)C=O`, “inactive; negative”.
In the case of `O=C(O)c1cc(O)c2c(c1)C(=O)c1cccc(O)c1C2=O`, the outcome was “active; positive”.
The result for `CC(C)[C@]12CC(=O)[C@H](C)[C@H]1C2` reads “inactive; negative”; that for `Cc1c(N)cccc1[N+](=O)[O-]`, “active; positive”.
The result for `ClC(Cl)=C(c1ccc(Cl)cc1)c1ccc(Cl)cc1` reads “inactive; negative”; that for `C[Si](C)(C)O[Si](C)(O[Si](C)(C)C)O[Si](C)(C)C`, “inactive; negative”; that for `OCCCCO`, “inactive; negative”.
For the compound `CCNC(=O)CC(C)=O`, the outcome is “inactive; negative”.
In the case of `c1ccc2c(c1)CCCC2`, the outcome was “inactive; negative”.
Under `OCCC(F)(F)C(F)(F)C(F)(F)C(F)(F)C(F)(F)C(F)(F)C(F)(F)C(F)(F)F` stands “inactive; negative”; under `[O]=[Cr](=[O])([OH])[O][Cr](=[O])(=[O])[OH]`, “active; positive”.
For the compound `Cc1ccc(N)cc1N`, the outcome is “active; positive”.
As for `CCOc1ccc2nc(N)sc2c1`, the outcome is “active; positive”.
The result for `COc1cc(/C=C/C(=O)CC(=O)/C=C/c2ccc(O)c(OC)c2)ccc1O` reads “inactive; negative”; that for `Cc1c(N=C=O)cccc1N=C=O`, “active; positive”; that for `Nc1cccc(O)c1`, “active; positive”.
As to `Cc1cc(C(C)(C)C)c(O)c(C(C)(C)C)c1`, the outcome is “inactive; negative”.
Take `C[C@](N)(Cc1ccc(O)c(O)c1)C(=O)O`: the outcome was “inactive; negative”.
The result for `CCCCOC(=O)COc1ccc(Cl)cc1Cl` reads “inactive; negative”.
For `CCCCCCc1ccc(-c2ccc(C#N)cc2)cc1`, the outcome is “inactive; negative”.
As to `CC(CCN(C)C)N(C)C` (stereo not drawn), the outcome was “inactive; negative”.
Under `Oc1cc(Cl)c(Cl)c(Cl)c1` stands “inactive; negative”.
Take `Brc1ccccc1-c1ccccc1`: the outcome was “inactive; negative”.
For the compound `CC(C)(C)OOC(C)(C)CCC(C)(C)OOC(C)(C)C`, the outcome was “inactive; negative”.
Consider `O=C(O)CN(CC(=O)O)CC(=O)O`, for which the outcome is “inactive; negative”.
The result for `Brc1ccc(-c2ccccc2)cc1` reads “inactive; negative”.
As for `CC(C)=CCC1CCCC1=O` (stereo not drawn), the outcome was “inactive; negative”.
Under `COc1cc(-c2ccc(N=Nc3ccc4c(S(=O)(=O)O)cc(S(=O)(=O)O)c(N)c4c3O)c(OC)c2)ccc1N=Nc1ccc2c(S(=O)(=O)O)cc(S(=O)(=O)O)c(N)c2c1O` stands “active; positive”; under `O=C(O)C(Cl)(Cl)Cl`, “inactive; negative”.
As to `Cc1cc(C)cc([N+](=O)[O-])c1`, the outcome is “active; positive”.
Under `CC(C)(c1cc(Br)c(O)c(Br)c1)c1cc(Br)c(O)c(Br)c1` stands “inactive; negative”.
Under `C=CCOC(=O)COCCC(C)C` stands “inactive; negative”; under `Nc1ccc2cc3ccccc3cc2c1`, “active; positive”.
`CN(Cc1cnc2nc(N)nc(N)c2n1)c1c(Cl)cc(C(=O)N[C@@H](CCC(=O)O)C(=O)O)cc1Cl`: the outcome was “active; weakly positive”.
In the case of `CC(=O)OC/C=C(\C)CCC=C(C)C`, the outcome was “inactive; negative”.
For the compound `Clc1ccc(C(c2ccccc2Cl)C(Cl)Cl)cc1` (stereo not drawn), the outcome was “inactive; negative”.
In the case of `CN(C)N=Nc1nc[nH]c1C(N)=O`, the outcome is “active; positive”.
Under `CN(C)c1ccc(N=Nc2ccccc2)cc1` stands “active; positive”; under `O=C(O)CNCP(=O)(O)O`, “inactive; negative”.
